Experimental data reported in PubChem BioAssay (NCI).
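Protocol summary: plate cells (96-well), add compound at 5 concentrations, incubate 48 h, interpolate endpoints linearly. The concentration for full growth arrest is given as TGI.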

Experiments:
Assay in all cases: NCI anticancer screen, dose series, 48 h
A498 renal = system: A498 renal
COLO 205 colon = system: COLO 205 colon
HCT-15 colon = system: HCT-15 colon
HOP-92 NSCLC = system: HOP-92 NSCLC
HT29 colon = system: HT29 colon
KM12 colon = system: KM12 colon
LOX IMVI melanoma = system: LOX IMVI melanoma
NCI-H226 lung = system: NCI-H226 lung
OVCAR-4 ovarian = system: OVCAR-4 ovarian
PC-3 prostate = system: PC-3 prostate
SNB-75 CNS = system: SNB-75 CNS
BT-549 breast = system: BT-549 breast

Row | SMILES | TGI (A498 renal) [µM] | TGI (COLO 205 colon) [µM] | TGI (HCT-15 colon) [µM] | TGI (HOP-92 NSCLC) [µM] | TGI (HT29 colon) [µM] | TGI (KM12 colon) [µM] | TGI (LOX IMVI melanoma) [µM] | TGI (NCI-H226 lung) [µM] | TGI (OVCAR-4 ovarian) [µM] | TGI (PC-3 prostate) [µM] | TGI (SNB-75 CNS) [µM] | TGI (BT-549 breast) [µM]
1 | Nn1c(C23CC4CC(CC(C4)C2)C3)n[nH]c1=S | > 100 | > 100 | > 100 | > 100 | > 100 | > 100 | > 100 | > 100 | > 100 | > 100 | > 100 | 
2 | Cc1cc(C)c2c(=O)cc(-c3cccc4ccccc34)[nH]c2n1 | 4.72 | 2.03 | 14.3 | > 77.1 | 2.31 | 15.4 | 26.4 | 79.1 | > 100 | > 100 |  | > 100
3 | CC(C)(C)C1CCC(=O)/C(=C/CC2CC(=O)N(c3ccccc3)C(=O)C2)C1 (configuration not stated) | 61.2 | 41.2 | 33.2 |  | 43.6 | 33.6 | 29.7 | 32 | 77.4 | 70.2 | 53.3 | 44.5
4 | C=CCCON(C(=O)OC(C)(C)C)c1ccccc1 | > 100 | > 100 | > 100 | > 100 | > 100 | > 100 | > 100 | > 100 |  | > 100 | > 100 | > 100
5 | COc1ccc(Cn2c3c(cc(OC(C)=O)c2=O)Cc2ccccc2-3)cc1 |  | > 50 | 39 | 34.1 | 25.2 | 35.9 | 19.7 | 41.1 | > 50 | 30.2 | 43.6 | 35.1
6 | N[C@@H]1CCN(c2c(F)cc3c(=O)c(C(=O)O)cn4c3c2Oc2c-4ccc3c2ccc2ccccc23)C1 | > 100 | > 100 | > 100 | 61.7 | > 100 | > 100 | > 100 | > 100 |  | > 100 |  | > 100
7 | CCCCCCNCCc1cnc[nH]1 | > 100 | > 100 | > 100 | > 100 | > 100 | > 100 | > 100 | > 100 | > 100 | > 100 | > 100 | 
8 | CC1(C)C2CCC1(C)C(N/C(Sc1ccccc1)=C(/C(Cl)=C(Cl)Cl)[N+](=O)[O-])C2 (configuration not stated) | 28.2 |  | 24.1 |  | 30.7 | 18.8 |  | 31.1 | 29.8 | 21.1 | 30.4 | 28.8
9 | COC(=O)C1Cc2cc3c(cc2C1=O)CCC3 (configuration not stated) | > 100 | > 100 | > 100 |  | > 100 | > 100 | > 100 | > 100 | > 100 | > 100 | > 100 | > 100
10 | COc1ccc(-c2c(C(C)=O)c(-c3ccccc3)n(C3OC(CO)C(O)C(O)C3O)c(=S)c2C#N)cc1 (configuration not stated) | > 100 | > 100 | > 100 |  | > 100 | > 100 | > 100 | > 100 | > 100 |  |  | 
11 | Cc1ccc(-n2[nH]nc(C(N)=O)c2=O)cc1 |  | > 100 | > 100 |  | > 100 | > 100 |  | > 100 | > 100 | > 100 | > 100 | > 100
12 | CCCCC1(NN=C2CCCCC2)C(=O)N(c2ccccc2)N(c2ccccc2)C1=O |  | > 100 | > 100 |  | > 100 | > 100 |  |  | > 100 | > 100 | > 100 | > 100
13 | NC(N)=NS(=O)(=O)c1ccc(NNc2c3ccccc3nc3ccccc23)cc1 |  | 33.2 | > 100 | 31.5 | 27.2 | 28.6 | 18.2 | 20.5 | 21.7 | 25.3 | 50.3 | 28.5
14 | ONC1=Nc2cc(Cl)ccc2C(=S)N2CSCC12 (configuration not stated) | > 100 | > 100 | > 100 |  | > 100 | > 100 | > 100 | > 100 | > 100 | > 100 | > 100 | > 100
15 | CCCCCCCC(CC(=O)NC(CO)C(=O)NC(CO)CC(C)C)OC(=O)CC(CCCCCCC)OC(=O)CC(CCCCCCC)OC1OC(C)C(O)C(OC2OC(C)C(OC(C)=O)C(O)C2O)C1O (configuration not stated) | 23.5 | 9.14 |  | 21 | 13 | 14.3 |  | 35.5 | 19.4 | 16.2 | 16.3 | 19.6
16 | C=C(C)C1CCC(C(=O)O)CC1 (configuration not stated) | > 100 | > 100 | > 100 | > 100 | > 100 | > 100 | > 100 | > 100 |  | > 100 | > 100 | > 100
17 | O=C(NN1C(=O)C(Cl)C1c1ccc(Cl)cc1)c1c(Cl)c(Cl)c(Cl)c(Cl)c1-c1nc2ccccc2[nH]1 (configuration not stated) | 63.6 | 36.2 | 54.4 | 51.4 | 75.8 | > 100 | 32.5 | 65.7 |  | > 100 | 57 | 77.8
18 | CN(/N=C/c1ccc(C(=O)O)cc1)C1=NCCCCN1 | > 100 | > 100 | > 100 |  | > 100 | > 100 | > 100 | > 100 | > 100 | > 100 | > 100 | > 100
19 | CN(C)CCOc1ccc([N+](=O)[O-])c2cccnc12 | > 100 | > 100 | > 100 |  | > 100 | > 100 |  | > 100 |  | > 100 | > 100 | > 100
20 | C=C(CCOC)CCC1CCCCC(CN(C)C)C1=O (configuration not stated) | > 100 | > 100 | > 100 |  | > 100 | > 100 | > 100 | > 100 | > 100 | > 100 | > 100 | > 100
21 | S=C(N/N=C/c1ccccn1)N1CCCCC1 |  | > 100 | 28.3 | > 100 | > 100 | > 100 | 20.8 | 6.97 | > 24.1 | > 100 | 0.181 | 32.5
